Paper PMC6290480 (Cannabis and Cannabinoid Research, 2018)
≈ marks a conversion by molar mass, not a printed value. Like-named read-outs stand apart in the source and are kept apart here.

What was measured:
[1] = target: T1, CB1 (Homo sapiens, UniProt P21554); experiment: biochemical; type: binding; conditions: for α (binding cooperativity factor): cooperativity with orthosteric agonist [3H]CP55,940, α >1 positive allosteric modulator
T1 construct: expressed in transfected cells; host or cells: HEK293T cells, transient calcium phosphate transfection, pcDNA3.1 vector; membrane preparation
Procedure: (§1) Human embryonic kidney 293T (HEK293T) cells were grown and seeded in Dulbecco's modified Eagle's medium with 3.5 mg/mL glucose and 10% fetal bovine serum at 37°C and 5% carbon dioxide. To express the CB1 receptors, HEK293T cells were seeded at 1,000,000 cells/100-mm plate. The following day, cells were transfected via the calcium phosphate method with ∼10 μg of human CB1 receptor cloned into pcDNA3.1[23] Membranes of the transfected cells were prepared as previously described 21 h after transfection.[24]
Approximately 3 μg of membrane preparation expressing CB1 was incubated with nine concentrations of allosteric modulator (1 nM-10 μM). The radiolabeled tracer [[3]H]CP55,940 (150.2 Ci/mmol; Perkin Elmer), an orthosteric agonist of CB1, was added at 0.5 nM. Nonspecific binding was established by treating with a high concentration of unlabeled CP55,940 (10 μM; Tocris). The membranes were incubated at 30°C for 60 min, and the reaction was terminated with the addition of 300 μL of Tris-Mg^2+-EDTA (TME) buffer with 5% bovine serum albumin (BSA). The mixture was harvested by filtration through a Brandel cell harvester with Whatman GF/C filter paper. Liquid scintillation counting was used to measure radioactivity.
To synthesize the target azaindole-2-carboxamides, it requires corresponding azaindole-2-carboxylic acids (i.e., 1b and 8) as the key building blocks (Fig. 2). To access these azaindole-2-carboxylic acids, we used the Hemetsberger–Knittel indole synthesis, which involves Knoevenagel condensation between a pyridinecarbaldehyde and the azido acetate 5.[20] […] In this investigation, the 6-azaindole-2-carboxylic acid 1b was obtained from a commercial source (Achemtek, Worcester, MA). […] At the receptor binding level, when α is >1, the ligand is a positive allosteric modulator, whereas when α is <1, the ligand is a negative allosteric modulator. Accordingly, when α is equal to 1, it indicates no allosteric modulation on orthosteric ligand binding.

[2] = physchem; type: physicochemical; conditions: for solubility thermodynamic at 24 h: 37 °C, pH 7.4, aqueous buffer, thermodynamic from solid
Procedure: The thermodynamic solubility of selected compounds were tested according to previously reported methods.[16],[22] In brief, stock solution of test compound (1 mg/mL) in acetonitrile was prepared and then diluted with mobile phase to prepare the calibration standards in the concentration range of 0.1–50 μg/mL. Following this, 2 mg of test compound powder was suspended in 2 mL of phosphate-buffered saline (PBS; 10 mM) at pH 7.4 and 37°C. The suspension was stirred at 37°C with 800 rpm stirring for 24 h. After completion of the incubation, the saturated suspension was filtered through a syringe polytetrafluoroethylene filter (0.45 μm), which has no absorption for the compounds. 200 μL of the filtrate was diluted with 800 μL acetonitrile immediately to a final volume of 1 mL. Subsequently, 20 μL of this solution was used for the high-performance liquid chromatography (HPLC) analysis, which was analyzed on Shimadzu HPLC (LC model: LC20AB, UV/vis detector: SPD20A; Autosampler: SIL-20A HT) with a Phenomenex reverse phase C18 column (250×3 mm, Luna 5 μm C18 100Å). The HPLC analysis was carried out by using the mixture of acetonitrile and water (60:40 v/v) as the mobile phase with a flow rate of 1 mL/min. The signals were detected at UV wavelength 254 nm. At this wavelength, each peak's area under the curve was measured and used for the quantitative evaluation.

[3] = target: T1, CB1; experiment: [35S]GTPγS binding evaluation (G-protein coupling); type: biochemical; conditions: percent of basal; for [35S]GTPγS binding, allosteric modulator alone: CB1 membranes treated with modulator alone; for [35S]GTPγS binding in the presence of CP55,940: modulator at 5 and 10 μM plus 0.1 μM CP55,940, compared to 0.1 μM CP55,940 alone
Procedure: as §1
To assess the impact of 3c and 3d on G-protein coupling of CB1, GTPγS assays were performed essentially as described previously.[20] […] GTPγS binding assay buffer (50 mM Tris-HCl, pH 7.4, 3 mM MgCl2, 0.2 mM EGTA, and 100 mM NaCl) was added to 200 μL. The membranes were incubated for 1 h at 30°C. To determine nonspecific binding, 10 μM unlabeled GTPγS (Sigma) was used. To determine basal activity, membrane preparations were treated with vehicle (dimethylsulfoxide or DMSO) alone. Termination of the reaction was achieved through filtration using Whatman GF/C filter papers and washing with cold TME buffer. Bound radioactivity was measured by liquid scintillation counting.

[4] = membranes of HEK293T cells expressing CB1, tracer [3H]CP55,940 0.5 nM, 30°C, 60 min, read-out: KB (equilibrium dissociation constant)
[5] = membranes of HEK293T cells expressing CB1, tracer [3H]CP55,940 0.5 nM, 30°C, 60 min

T1 sequence (P21554 whole entry): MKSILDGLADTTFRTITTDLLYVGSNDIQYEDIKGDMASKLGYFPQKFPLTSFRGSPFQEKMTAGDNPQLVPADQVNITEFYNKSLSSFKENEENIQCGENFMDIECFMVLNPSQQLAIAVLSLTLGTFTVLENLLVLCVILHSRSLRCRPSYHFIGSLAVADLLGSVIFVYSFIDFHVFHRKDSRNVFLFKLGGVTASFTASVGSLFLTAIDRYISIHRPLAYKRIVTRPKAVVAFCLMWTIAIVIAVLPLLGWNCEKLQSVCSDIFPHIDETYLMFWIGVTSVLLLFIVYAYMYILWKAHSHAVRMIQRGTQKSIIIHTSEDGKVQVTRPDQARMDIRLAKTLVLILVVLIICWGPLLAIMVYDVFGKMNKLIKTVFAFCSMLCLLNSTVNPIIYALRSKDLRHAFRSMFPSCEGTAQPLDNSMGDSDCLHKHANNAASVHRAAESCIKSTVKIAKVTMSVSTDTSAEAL

In the case of CN(C)c1ccc(CCNC(=O)c2cc3cc(Cl)ccc3[nH]2)cc1 [Compound 3a], the “α (binding cooperativity factor)” value [1] is reported as 4.2, the Kb [1, 4] is reported as 300 nM and the “Thermodynamic solubility (obtained from experiments)” value ([2]; 24 h, pH 7.4) is reported as 0 µg/mL.

For O=C(NCCc1ccc(N2CCCCC2)cc1)c1cc2cc(Cl)ccc2[nH]1 [Compound 3b], the Kb [1] was 200 nM and the “α (binding cooperativity factor)” value [1] was 5.1.

For CN(C)c1ccc(CCNC(=O)c2cc3cc(Cl)ncc3[nH]2)cc1 [Compound 3c], the “α (binding cooperativity factor)” value [1] was 3.2, the “KB (equilibrium dissociation constant)” value [1, 5] was “modest binding affinity” and the Kb [1, 4] was 2400 nM. For the same molecule, the solubility thermodynamic at 24 h [2] was 1.6 µg/mL (≈ 4.67 µM), the “[35S]GTPγS binding, allosteric modulator alone” value [3] was “inhibition of G-protein coupling was also seen” and the “[35S]GTPγS binding in the presence of CP55,940” value [3] was “inhibition of GTPγS binding”.

With O=C(NCCc1ccc(N2CCCCC2)cc1)c1cc2cc(Cl)ncc2[nH]1 [Compound 3d] the “reduction of binding to the CB1 receptor in comparison with indole-2-carboxamide counterpart 3b” value ([1]; 3d versus 3b) was “about 25 fold”, the “KB (equilibrium dissociation constant)” value [1, 5] was “modest binding affinity” and the Kb [1, 4] was 5600 nM. The “[35S]GTPγS binding, allosteric modulator alone” value [3] was “inhibition of G-protein coupling was also seen” and the “[35S]GTPγS binding in the presence of CP55,940” value [3] was “inhibition of GTPγS binding”.

For CN(C)c1ccc(CCNC(=O)c2cc3cc(Cl)cnc3[nH]2)cc1 [Compound 9a], the “KB (equilibrium dissociation constant)” value [1, 5] was “completely lost their binding affinity”, the Kb [1, 4] was > 10000 nM and the “solubility in common organic solvents suitable for HPLC sample preparation” value [2] was “exceptionally low solubility”. It also gave a solubility thermodynamic at 24 h [2] of 3 µg/mL (≈ 8.75 µM).

With O=C(NCCc1ccc(N2CCCCC2)cc1)c1cc2cc(Cl)cnc2[nH]1 [Compound 9b] the “KB (equilibrium dissociation constant)” value [1, 5] was “completely lost their binding affinity” and the Kb [1, 4] was > 10000 nM.
